Measurements from patent USRE49825E1, “Piperidinyl nociceptin receptor compounds” (Astraea Therapeutics, LLC, priority 2015, dated 2024).
Read-outs that look alike come from different tables or passages of the source.

What was measured:
mu opioid receptor = mu opioid receptor (Homo sapiens, UniProt P35372); assay: Radioligand binding assay, [3H]DAMGO, membranes of CHO cells transfected with human mu opioid receptor; conditions: CHO cell membranes, read-out: Receptor Binding Ki (nM) μ
kappa opioid receptor = kappa opioid receptor (Homo sapiens, UniProt P41145); assay: Radioligand binding assay, [3H]U69593, membranes of CHO cells transfected with human kappa opioid receptor; conditions: CHO cell membranes, read-out: Receptor Binding Ki (nM) κ
kappa opioid receptor, sequence (P41145 whole entry): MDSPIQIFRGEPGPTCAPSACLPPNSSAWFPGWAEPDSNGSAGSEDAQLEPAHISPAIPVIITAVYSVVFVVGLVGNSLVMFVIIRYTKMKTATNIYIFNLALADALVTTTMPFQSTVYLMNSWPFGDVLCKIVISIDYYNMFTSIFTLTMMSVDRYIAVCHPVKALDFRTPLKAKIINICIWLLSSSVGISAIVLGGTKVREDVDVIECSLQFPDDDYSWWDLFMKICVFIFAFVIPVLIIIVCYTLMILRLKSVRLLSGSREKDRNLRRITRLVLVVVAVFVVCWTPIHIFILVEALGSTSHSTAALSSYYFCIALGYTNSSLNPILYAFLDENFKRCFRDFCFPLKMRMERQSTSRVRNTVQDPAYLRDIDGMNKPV

mu opioid receptor, sequence (P35372 whole entry): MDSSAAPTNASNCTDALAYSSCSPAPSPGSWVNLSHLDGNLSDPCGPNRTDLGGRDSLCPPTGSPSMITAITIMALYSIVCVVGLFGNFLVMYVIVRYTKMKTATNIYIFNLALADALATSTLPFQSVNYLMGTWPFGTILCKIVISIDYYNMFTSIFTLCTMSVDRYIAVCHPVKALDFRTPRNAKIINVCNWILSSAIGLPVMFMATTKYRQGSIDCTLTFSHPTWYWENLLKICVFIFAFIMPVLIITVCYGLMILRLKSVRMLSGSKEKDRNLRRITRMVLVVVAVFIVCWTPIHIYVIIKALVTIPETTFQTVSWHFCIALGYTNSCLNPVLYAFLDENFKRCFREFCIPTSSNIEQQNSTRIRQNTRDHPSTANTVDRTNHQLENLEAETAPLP

Structure (SMILES)	Ki (mu opioid receptor; Compounds of Formula (II)) [nM]	Ki (kappa opioid receptor; Compounds of Formula (II)) [nM]	Ki (mu opioid receptor; Compounds of Formula (IV)) [nM]	Ki (kappa opioid receptor; Compounds of Formula (IV)) [nM]
CC(C)[C@H]1CC[C@@H](N2CCC(n3ccc4ccccc43)CC2)CC1 [Compound 61, syn-1-(1-(4-isopropylcyclohexyl)piperidin-4-yl)-1H-indole]	150 to 5000	150 to 5000		
CC(C)[C@H]1CC[C@@H](N2CCC(n3cc(CN4CC[C@@H](O)C4)c4ccccc43)CC2)CC1 [Compound 66, (R)-1-((1-(1-(cis-4-isopropylcyclohexyl)piperidin-4-yl)-1H-indol-3-yl)methyl)pyrrolin-3-ol]	150 to 5000	> 5000		
CC(C)[C@H]1CC[C@@H](N2CCC(n3cc(CN4CC(O)C4)c4ccccc43)CC2)CC1 [Compound 67, 1-((1-(1-(cis-4-isopropylcyclohexyl)piperidin-4-yl)-1H-indol-3-yl)methyl)azetidin-3-ol]	> 5000	> 5000		
CC(C)[C@H]1CC[C@@H](N2CCC(n3cc(CN4CCC(O)CC4)c4ccccc43)CC2)CC1 [Compound 68]	> 5000	150 to 5000		
CC(C)[C@H]1CC[C@@H](N2CCC(n3cc(CN4CCC(N)CC4)c4ccccc43)CC2)CC1 [Compound 69, 1-((1-(1-(cis-4-isopropylcyclohexyl)piperidin-4-yl)-1H-indol-3-yl)methyl)piperidin-4-amine]	150 to 5000	150 to 5000		
CC(C)[C@H]1CC[C@@H](N2CCC(n3cc(CNCCO)c4ccccc43)CC2)CC1 [Compound 70]	150 to 5000	150 to 5000		
CCNCC(=O)NCc1cn(C2CCN([C@H]3CC[C@@H](C(C)C)CC3)CC2)c2ccccc12 [Compound 76]	150 to 5000	150 to 5000		
CC(C)[C@H]1CC[C@@H](N2CCC(n3cc(CNC(=O)C(N)CCCNC(=N)N)c4ccccc43)CC2)CC1 (stereo partly shown) [Compound 80]	150 to 5000	150 to 5000		
CC(C)[C@H]1CC[C@@H](N2CCC(n3cc(CN(C)C)c4ccccc43)CC2)CC1 [Compound 84]	150 to 5000			
CC(C)[C@H]1CC[C@@H](N2CCC(n3cc(CCN)c4ccccc43)CC2)CC1 [Compound 86, 2-(1-(1-(cis-4-isopropylcyclohexyl)piperidin-4-yl)-1H-indol-3-yl)ethan-1-amine]	150 to 5000	150 to 5000		
CCOC(=O)NCCc1cn(C2CCN([C@H]3CC[C@@H](C(C)C)CC3)CC2)c2ccccc12 [Compound 94]	150 to 5000	> 5000		
CC(C)[C@H]1CC[C@@H](N2CCC(n3cc(CCCNC(N)=S)c4ccccc43)CC2)CC1 [Compound 96]	150 to 5000	150 to 5000		
CC(C)[C@H]1CC[C@@H](N2CCC3(CC2)C(=O)N(CC(N)=O)Cc2cc(-c4ccccc4)ccc23)CC1 [Compound 345, 2-(1′-(cis-4-isopropyl-cyclohexyl)-3-oxo-7-phenyl-1H-spiro [isoquinoline-4,4′-piperidin]-2(3H)-yl) acetamide]			150 to 5000	150 to 5000
